How the values were obtained:
Histone deacetylase 3 = Histone deacetylase 3 (Homo sapiens, UniProt O15379); test: Inhibition of C-terminal His-tagged full length human recombinant HDAC3 co-expressed with NcoR2 in baculovirus expression system using fluorogenic acetylated peptide as substrate preincubated with enzyme for 10 mins prior to substrate addition measured after 60 mins by fluorescence analysis
Histone deacetylase 2 = Histone deacetylase 2 (Homo sapiens, UniProt Q92769); test: (§1) Inhibition of C-terminal His-tagged full length human recombinant HDAC2 expressed in baculovirus expression system using fluorogenic acetylated peptide as substrate preincubated with enzyme for 10 mins prior to substrate addition measured after 60 mins by fluorescence analysis
Histone deacetylase 2, sequence (Q92769 whole entry, the tested form may be a part): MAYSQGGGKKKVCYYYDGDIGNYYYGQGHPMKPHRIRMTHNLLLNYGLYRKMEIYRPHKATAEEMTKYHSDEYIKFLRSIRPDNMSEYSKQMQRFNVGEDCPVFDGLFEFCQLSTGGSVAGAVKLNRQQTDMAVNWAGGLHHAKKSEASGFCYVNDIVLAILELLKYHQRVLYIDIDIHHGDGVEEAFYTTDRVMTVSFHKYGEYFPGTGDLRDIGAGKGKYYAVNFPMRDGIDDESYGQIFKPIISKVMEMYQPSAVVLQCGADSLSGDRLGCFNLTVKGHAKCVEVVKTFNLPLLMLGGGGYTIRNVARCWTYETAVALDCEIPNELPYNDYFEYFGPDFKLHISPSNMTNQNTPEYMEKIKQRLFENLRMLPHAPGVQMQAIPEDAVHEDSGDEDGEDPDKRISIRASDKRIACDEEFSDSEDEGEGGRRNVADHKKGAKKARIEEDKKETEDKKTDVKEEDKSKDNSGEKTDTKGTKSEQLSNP

Histone deacetylase 9 = Histone deacetylase 9 (Homo sapiens, UniProt Q9UKV0); test: Inhibition of C-terminal His-tagged human recombinant HDAC9 (amino acids 604- 1066) expressed in baculovirus expression system using fluorogenic acetylated peptide as substrate preincubated with enzyme for 10 mins prior to substrate addition measured after 60 mins by fluorescence analysis
Histone deacetylase 9, sequence (Q9UKV0 whole entry, the tested form may be a part): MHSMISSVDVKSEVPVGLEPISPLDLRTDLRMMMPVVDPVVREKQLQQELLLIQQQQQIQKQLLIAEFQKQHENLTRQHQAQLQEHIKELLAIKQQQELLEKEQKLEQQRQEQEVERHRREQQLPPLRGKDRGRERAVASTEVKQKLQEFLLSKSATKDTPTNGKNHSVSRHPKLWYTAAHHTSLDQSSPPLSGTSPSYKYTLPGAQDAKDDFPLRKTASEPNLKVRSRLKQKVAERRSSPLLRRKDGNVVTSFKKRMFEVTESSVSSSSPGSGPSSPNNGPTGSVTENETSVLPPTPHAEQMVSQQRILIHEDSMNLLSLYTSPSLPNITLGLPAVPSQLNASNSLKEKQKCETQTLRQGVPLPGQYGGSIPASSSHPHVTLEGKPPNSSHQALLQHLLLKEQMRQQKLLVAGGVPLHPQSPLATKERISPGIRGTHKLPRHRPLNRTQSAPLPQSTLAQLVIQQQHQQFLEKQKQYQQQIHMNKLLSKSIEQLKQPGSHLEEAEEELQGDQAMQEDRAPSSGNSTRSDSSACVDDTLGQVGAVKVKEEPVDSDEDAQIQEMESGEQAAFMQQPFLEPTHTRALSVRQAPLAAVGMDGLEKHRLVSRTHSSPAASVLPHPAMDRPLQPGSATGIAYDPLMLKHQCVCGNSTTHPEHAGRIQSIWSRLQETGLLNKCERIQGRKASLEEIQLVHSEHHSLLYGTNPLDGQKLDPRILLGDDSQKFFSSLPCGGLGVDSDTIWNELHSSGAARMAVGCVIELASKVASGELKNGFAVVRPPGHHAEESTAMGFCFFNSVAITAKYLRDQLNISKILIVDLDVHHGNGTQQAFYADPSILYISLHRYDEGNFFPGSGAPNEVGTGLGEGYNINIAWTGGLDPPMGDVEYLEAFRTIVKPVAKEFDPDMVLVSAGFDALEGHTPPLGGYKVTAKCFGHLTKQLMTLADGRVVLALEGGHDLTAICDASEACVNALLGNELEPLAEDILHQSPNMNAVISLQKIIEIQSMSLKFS

Histone deacetylase 1 = Histone deacetylase 1 (Homo sapiens, UniProt Q13547); test: as §1, with “His-tagged and C-terminal FLAG-tagged” for “His-tagged”, “HDAC1” for “HDAC2”
Histone deacetylase 1, sequence (Q13547 whole entry): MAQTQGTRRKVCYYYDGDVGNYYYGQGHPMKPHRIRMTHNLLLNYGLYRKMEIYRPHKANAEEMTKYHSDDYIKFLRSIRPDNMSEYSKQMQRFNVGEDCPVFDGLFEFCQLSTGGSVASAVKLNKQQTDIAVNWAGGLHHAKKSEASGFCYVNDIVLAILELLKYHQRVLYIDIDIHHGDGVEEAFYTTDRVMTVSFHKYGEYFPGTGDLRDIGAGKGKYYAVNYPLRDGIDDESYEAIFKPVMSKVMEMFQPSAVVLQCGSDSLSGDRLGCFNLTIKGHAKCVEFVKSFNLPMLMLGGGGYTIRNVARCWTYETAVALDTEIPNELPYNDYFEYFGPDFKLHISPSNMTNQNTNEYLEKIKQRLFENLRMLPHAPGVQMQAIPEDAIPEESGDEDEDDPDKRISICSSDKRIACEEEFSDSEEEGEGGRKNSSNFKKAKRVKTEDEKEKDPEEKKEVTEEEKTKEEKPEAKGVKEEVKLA

Histone deacetylase 3, sequence (O15379 whole entry): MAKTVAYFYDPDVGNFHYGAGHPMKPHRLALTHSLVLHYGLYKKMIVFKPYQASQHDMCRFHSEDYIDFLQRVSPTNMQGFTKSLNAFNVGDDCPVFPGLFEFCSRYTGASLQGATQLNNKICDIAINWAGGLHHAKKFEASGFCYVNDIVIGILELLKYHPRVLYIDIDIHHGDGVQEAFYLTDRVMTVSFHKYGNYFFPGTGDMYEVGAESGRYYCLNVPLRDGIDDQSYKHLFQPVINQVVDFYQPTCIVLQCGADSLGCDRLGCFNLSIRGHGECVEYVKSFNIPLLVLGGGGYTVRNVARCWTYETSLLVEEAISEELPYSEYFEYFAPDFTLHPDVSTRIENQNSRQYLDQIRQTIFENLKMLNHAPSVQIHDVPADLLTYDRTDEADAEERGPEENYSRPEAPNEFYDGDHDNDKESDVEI

IC50 (Histone deacetylase 3) [nM]	IC50 (Histone deacetylase 2) [µM]	IC50 (Histone deacetylase 9) [µM]	IC50 (Histone deacetylase 1) [nM]	SMILES
649	3.27	16.2	1670	CC(C)[C@@H]1NC(=O)Cn2nnnc2-c2csc(n2)CNC(=O)C[C@@H](/C=C/CCS)OC1=O
31	0.224	34.6	100	CC(C)[C@@H]1NC(=O)Cn2nnc(n2)-c2csc(n2)CNC(=O)C[C@@H](/C=C/CCS)OC1=O
885	3.88	32	2350	CC(C)[C@@H]1NC(=O)Cn2cc(nn2)-c2csc(n2)CNC(=O)C[C@@H](/C=C/CCS)OC1=O
3990	30.8	> 100	7420	CCCCCCCC(=O)SCC/C=C/[C@@H]1CC(=O)NCc2nc(cs2)-c2nnn(n2)CC(=O)N[C@@H](C(C)C)C(=O)O1

The remaining lines, values behind:

SMILES	IC50 (Histone deacetylase 3) [nM]	IC50 (Histone deacetylase 2) [µM]	IC50 (Histone deacetylase 9) [µM]	IC50 (Histone deacetylase 1) [nM]
CCCCCCCC(=O)SCC/C=C/[C@@H]1CC(=O)NCc2nc(cs2)-c2nnnn2CC(=O)N[C@@H](C(C)C)C(=O)O1	10400	25.1	18.4	–
CCCCCCCC(=O)SCC/C=C/[C@@H]1CC(=O)NCc2nc(cs2)C2=N[C@@](C)(CS2)C(=O)N[C@@H](C(C)C)C(=O)O1 [LARGAZOLE]	–	1.72	8.33	146
CCCCCCCC(=O)SCC/C=C/[C@@H]1CC(=O)NCc2nc(cs2)-c2cn(nn2)CC(=O)N[C@@H](C(C)C)C(=O)O1	14000	32.1	63.2	17600

Reference: ChEMBL document CHEMBL2321647 (ACS Med Chem Lett, 2013)
